Data set [1] has as its target T1, Muscarinic acetylcholine receptor M4 (Homo sapiens) (UniProt P08173).
T1 sequence (whole entry): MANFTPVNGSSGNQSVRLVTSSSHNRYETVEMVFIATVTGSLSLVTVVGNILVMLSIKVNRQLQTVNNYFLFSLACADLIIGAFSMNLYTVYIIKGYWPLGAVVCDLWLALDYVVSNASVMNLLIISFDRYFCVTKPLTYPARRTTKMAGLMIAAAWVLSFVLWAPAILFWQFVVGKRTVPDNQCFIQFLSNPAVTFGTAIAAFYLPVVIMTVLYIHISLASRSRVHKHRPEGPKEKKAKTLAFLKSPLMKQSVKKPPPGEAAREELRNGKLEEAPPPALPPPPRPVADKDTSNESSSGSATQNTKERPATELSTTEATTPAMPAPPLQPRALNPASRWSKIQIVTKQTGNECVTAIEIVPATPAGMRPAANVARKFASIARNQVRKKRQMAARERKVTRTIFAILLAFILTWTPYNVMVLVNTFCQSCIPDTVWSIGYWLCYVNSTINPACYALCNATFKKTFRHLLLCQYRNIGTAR
The experiment in a line: Antagonist activity at human muscarinic acetylcholine M4 receptor expressed in CHO cells co-expressing Gqi5 assessed as minimal acetylcholine response by calcium mobilization assay relative to control. It counts as functional, cell-based. Also noted: scale not given: the % may be the effect or the level left. Particulars: filed as antagonist. Background: Calcium assays in cells follow changes in intracellular calcium, usually with a dye or a luminescent sensor.

Data set [2] addresses T2, Muscarinic acetylcholine receptor M4 (Homo sapiens, UniProt P08173).
T2 sequence (P08173 whole entry): T1 sequence (whole entry)
The data set is described as follows: Inhibition of human muscarinic acetylcholine M4 receptor expressed in CHO cells co-expressing Gqi5 in the presence of acetylcholine at EC80 concentration by calcium mobilization assay. It is filed as functional, cell-based.

Data set [3] in a line: Intrinsic clearance in human liver microsomes. It counts as ADME, Microsome. Particulars: read-out: CLH.
Data set [4] addresses T3, Muscarinic acetylcholine receptor M2 (Homo sapiens, UniProt P08172).
T3 sequence (P08172 whole entry): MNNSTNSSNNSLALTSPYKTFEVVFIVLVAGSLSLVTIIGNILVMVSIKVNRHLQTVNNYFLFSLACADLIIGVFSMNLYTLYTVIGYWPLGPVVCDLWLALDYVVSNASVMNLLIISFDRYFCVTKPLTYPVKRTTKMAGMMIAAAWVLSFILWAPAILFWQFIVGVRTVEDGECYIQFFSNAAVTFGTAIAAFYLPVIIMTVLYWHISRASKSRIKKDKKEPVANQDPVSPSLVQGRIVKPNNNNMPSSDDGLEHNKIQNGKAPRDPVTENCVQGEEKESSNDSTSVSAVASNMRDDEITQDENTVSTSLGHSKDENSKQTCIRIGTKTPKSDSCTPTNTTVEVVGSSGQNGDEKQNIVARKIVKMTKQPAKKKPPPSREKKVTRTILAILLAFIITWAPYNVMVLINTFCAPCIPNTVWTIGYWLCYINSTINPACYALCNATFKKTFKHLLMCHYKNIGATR
The experiment in a line: Inhibition of human muscarinic acetylcholine M2 receptor expressed in CHO cells co-expressing Gqi5 in the presence of acetylcholine at EC80 concentration by calcium mobilization assay. It is filed as functional, cell-based.

A further data set concerns the target Cytochrome P450 2D6 (Homo sapiens, UniProt P10635). The experiment in a line: Inhibition of CYP2D6 in human liver microsomes using cocktail of isoform-specific probe substrate. It counts as ADME, Microsome. (In general: Liver microsomes are vesicles of endoplasmic reticulum, rich in cytochrome P450 enzymes.)
For another data set, the target named is Cytochrome P450 3A4 (Homo sapiens, UniProt P08684). The data set is described as follows: Inhibition of CYP3A4 in human liver microsomes using cocktail of isoform-specific probe substrate. It counts as ADME, Microsome.
Chain of Cytochrome P450 3A4 (P08684 whole entry, canonical isoform): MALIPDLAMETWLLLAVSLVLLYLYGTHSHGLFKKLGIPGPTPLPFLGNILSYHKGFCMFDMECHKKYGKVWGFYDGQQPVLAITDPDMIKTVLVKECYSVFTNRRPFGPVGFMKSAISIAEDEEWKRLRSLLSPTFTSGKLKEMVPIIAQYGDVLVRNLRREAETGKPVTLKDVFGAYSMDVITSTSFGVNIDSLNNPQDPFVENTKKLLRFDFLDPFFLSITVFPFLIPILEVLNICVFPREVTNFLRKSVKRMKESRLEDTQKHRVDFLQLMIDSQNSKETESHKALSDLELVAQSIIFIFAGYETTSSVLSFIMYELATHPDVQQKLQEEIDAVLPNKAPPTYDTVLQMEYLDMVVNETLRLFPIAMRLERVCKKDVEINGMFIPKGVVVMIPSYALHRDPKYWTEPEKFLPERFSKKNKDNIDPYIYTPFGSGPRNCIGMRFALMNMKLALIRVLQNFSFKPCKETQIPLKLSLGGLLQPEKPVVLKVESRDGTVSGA
In another data set the target is hERG (KCNH2) (Homo sapiens, UniProt Q12809). The experiment in a line: Inhibition of hERG at 10 uM by patch clamp method relative to control. It is filed as toxicity. For orientation: Block of hERG is tested as a sign of cardiac risk.
Chain of hERG (KCNH2) (Q12809 whole entry, canonical isoform): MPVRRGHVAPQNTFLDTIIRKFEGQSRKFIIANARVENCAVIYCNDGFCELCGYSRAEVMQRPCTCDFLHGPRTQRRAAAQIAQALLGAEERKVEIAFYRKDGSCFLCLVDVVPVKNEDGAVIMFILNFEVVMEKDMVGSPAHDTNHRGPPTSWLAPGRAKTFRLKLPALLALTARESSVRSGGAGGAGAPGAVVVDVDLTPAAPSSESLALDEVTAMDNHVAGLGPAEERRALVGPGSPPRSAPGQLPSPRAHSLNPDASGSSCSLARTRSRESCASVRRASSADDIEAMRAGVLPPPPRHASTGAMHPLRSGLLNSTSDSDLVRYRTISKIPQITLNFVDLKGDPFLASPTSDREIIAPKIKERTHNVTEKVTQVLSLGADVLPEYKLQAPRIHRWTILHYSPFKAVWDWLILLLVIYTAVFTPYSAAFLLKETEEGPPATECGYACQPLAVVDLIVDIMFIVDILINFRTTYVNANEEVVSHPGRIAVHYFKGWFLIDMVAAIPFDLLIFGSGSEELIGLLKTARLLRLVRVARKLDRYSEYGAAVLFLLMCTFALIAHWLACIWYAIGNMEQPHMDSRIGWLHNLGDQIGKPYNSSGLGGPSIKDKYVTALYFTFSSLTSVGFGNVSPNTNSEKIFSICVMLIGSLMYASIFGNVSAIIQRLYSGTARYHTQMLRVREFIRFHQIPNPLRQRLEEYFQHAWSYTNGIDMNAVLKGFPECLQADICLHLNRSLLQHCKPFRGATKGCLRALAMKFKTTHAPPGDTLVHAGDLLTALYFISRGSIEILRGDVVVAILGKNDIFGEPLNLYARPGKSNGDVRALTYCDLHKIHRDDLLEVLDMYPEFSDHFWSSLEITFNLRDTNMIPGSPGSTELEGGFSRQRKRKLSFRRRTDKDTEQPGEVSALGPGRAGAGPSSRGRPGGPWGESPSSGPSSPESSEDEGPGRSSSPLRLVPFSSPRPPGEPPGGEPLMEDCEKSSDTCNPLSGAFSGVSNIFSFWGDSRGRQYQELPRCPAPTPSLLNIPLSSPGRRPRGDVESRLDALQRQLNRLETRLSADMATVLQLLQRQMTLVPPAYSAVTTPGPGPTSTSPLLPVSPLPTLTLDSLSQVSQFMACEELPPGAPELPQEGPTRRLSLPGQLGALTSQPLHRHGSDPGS
The target in the next data set is Cytochrome P450 2C9 (Homo sapiens, UniProt P11712). The data set is described as follows: Inhibition of CYP2C9 in human liver microsomes using cocktail of isoform-specific probe substrate. It is filed as ADME, Microsome.
Chain of Cytochrome P450 2C9 (P11712 whole entry, canonical isoform): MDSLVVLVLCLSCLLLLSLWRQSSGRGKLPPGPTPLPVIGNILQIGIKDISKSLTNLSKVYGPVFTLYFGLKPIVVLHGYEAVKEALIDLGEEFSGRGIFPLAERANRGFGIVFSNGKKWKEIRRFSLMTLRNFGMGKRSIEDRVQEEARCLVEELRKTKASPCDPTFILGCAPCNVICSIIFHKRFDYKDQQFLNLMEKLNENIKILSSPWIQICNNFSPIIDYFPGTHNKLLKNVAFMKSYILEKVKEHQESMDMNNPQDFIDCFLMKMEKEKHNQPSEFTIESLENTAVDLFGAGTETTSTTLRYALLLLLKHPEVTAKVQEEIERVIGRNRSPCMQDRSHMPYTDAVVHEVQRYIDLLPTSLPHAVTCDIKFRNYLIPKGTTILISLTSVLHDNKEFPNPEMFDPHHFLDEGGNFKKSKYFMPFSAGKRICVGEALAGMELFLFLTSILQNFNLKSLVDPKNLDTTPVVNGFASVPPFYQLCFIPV
A further data set deals with T4, Cytochrome P450 1A2 (Homo sapiens, UniProt P05177).
T4 sequence (P05177 whole entry): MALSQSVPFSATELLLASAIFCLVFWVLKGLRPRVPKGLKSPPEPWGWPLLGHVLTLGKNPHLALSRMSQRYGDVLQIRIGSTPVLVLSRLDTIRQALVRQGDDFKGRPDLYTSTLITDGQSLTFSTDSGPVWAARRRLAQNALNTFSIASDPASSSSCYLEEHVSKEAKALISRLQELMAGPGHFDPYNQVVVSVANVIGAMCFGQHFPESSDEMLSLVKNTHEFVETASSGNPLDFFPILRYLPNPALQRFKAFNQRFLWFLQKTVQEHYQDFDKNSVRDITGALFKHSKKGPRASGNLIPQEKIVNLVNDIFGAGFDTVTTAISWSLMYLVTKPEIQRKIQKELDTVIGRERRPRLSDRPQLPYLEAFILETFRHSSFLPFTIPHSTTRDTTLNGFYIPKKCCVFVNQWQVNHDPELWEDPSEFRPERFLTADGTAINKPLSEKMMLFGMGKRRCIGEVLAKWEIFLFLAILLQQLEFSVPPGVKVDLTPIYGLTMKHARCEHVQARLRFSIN
The experiment in a line: Inhibition of CYP1A2 in human liver microsomes using cocktail of isoform-specific probe substrate. It is filed as ADME, Microsome.

A short description of data set [5]: Selectivity ratio of IC50 for inhibition of human muscarinic acetylcholine M2 receptor to IC50 for inhibition of human muscarinic acetylcholine M4 receptor expressed in CHO cells co-expressing Gqi5 in the presence of acetylcholine at EC80 concentration by calcium mobilization assay. It is filed as cell-based.
Data set [6] concerns the target T5, Muscarinic acetylcholine receptor M4 (Rattus norvegicus) (UniProt P08485).
T5 sequence (whole entry): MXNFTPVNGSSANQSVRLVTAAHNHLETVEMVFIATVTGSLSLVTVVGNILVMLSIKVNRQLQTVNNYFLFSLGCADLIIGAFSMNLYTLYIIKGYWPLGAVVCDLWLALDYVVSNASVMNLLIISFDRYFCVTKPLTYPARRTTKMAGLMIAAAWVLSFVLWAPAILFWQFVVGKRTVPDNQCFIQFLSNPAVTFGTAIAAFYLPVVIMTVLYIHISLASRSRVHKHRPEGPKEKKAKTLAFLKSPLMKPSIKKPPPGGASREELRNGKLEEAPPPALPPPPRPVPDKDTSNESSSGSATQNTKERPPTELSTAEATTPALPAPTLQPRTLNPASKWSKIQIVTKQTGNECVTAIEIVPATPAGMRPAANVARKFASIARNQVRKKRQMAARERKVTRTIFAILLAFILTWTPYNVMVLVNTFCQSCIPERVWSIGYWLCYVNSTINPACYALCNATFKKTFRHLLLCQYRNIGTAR
The data set is described as follows: Antagonist activity at rat muscarinic acetylcholine M4 receptor expressed in CHO cells co-expressing Gqi5 assessed as minimal acetylcholine response by calcium mobilization assay relative to control. Particulars: filed as antagonist. It is filed as functional, cell-based. Also noted: scale not given: the % may be the effect or the level left.

The target in data set [7] is T6, Muscarinic acetylcholine receptor M4 (Rattus norvegicus, UniProt P08485).
T6 sequence (P08485 whole entry): T5 sequence (whole entry)
The experiment in a line: Inhibition of rat muscarinic acetylcholine M4 receptor expressed in CHO cells co-expressing Gqi5 in the presence of acetylcholine at EC80 concentration by calcium mobilization assay. It counts as functional, cell-based.

Chain of Cytochrome P450 2D6 (P10635 whole entry, canonical isoform): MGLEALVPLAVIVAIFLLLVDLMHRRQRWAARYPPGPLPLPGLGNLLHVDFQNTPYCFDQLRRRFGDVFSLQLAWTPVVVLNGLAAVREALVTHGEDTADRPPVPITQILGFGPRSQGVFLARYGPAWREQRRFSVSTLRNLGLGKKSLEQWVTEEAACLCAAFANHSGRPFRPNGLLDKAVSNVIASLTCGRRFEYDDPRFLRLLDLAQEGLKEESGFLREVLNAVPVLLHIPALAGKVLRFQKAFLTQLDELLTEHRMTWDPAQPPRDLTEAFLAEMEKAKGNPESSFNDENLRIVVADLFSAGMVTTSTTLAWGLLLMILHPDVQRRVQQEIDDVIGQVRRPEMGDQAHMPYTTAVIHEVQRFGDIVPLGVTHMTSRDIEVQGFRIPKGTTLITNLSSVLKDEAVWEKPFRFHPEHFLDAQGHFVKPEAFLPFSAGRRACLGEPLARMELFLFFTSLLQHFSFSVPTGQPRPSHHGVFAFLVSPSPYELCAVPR

With `Fc1ccc(Cl)c(-c2ccc(NCC3CC4(CCN(CC5CCOCC5)CC4)C3)nn2)c1`, the Activity in data set [1] was found to be 4.7%.
As usually defined, the IC50 is the concentration at which inhibition is half-maximal. For `Fc1cccc(-c2ccc(NC[C@@H]3CC34CCN(CC3CCOCC3)CC4)nn2)c1`, the IC50 in data set [2] is 54 nM. The Activity in data set [1] was found to be 4.2%.
The inhibition is the percentage by which the read-out fell short of the control. Regarding `[2H]C([2H])(C1CCOCC1)N1CCC2(CC1)C[C@H]2CNc1ccc(-c2cc(F)cc(F)c2F)nn1`, the predicted hepatic clearance in [3] is 11 mL/min/kg. Also, the 50% inhibitory concentration (IC50) is 3000 nM in data set [4]; greater than 30000 nM against Cytochrome P450 2D6; 42 nM in data set [2]; 27600 nM on Cytochrome P450 3A4; greater than 30000 nM at Cytochrome P450 2C9; greater than 30000 nM on Cytochrome P450 1A2. On hERG (KCNH2), this compound returned an inhibition at 10 µM of 98%.
Regarding `Cn1cc2cc(-c3ccc(NC[C@@H]4CC45CCN(CC4CCOCC4)CC5)nn3)ccc2n1`, the predicted hepatic clearance in data set [3] is 5.9 mL/min/kg. The half-inhibitory concentration (IC50) in data set [4] is 6200 nM; at Cytochrome P450 2D6, 19900 nM; in data set [2] it was 130 nM; against Cytochrome P450 3A4 it was greater than 30000 nM; against Cytochrome P450 2C9 it was greater than 30000 nM; at Cytochrome P450 1A2 it was greater than 30000 nM. Besides, the Activity in data set [1] was 3.6%. The Ratio IC50 in data set [5] stood at 50.
With `Fc1ccc(Cl)c(-c2ccc(NC3CC4(C3)CN(CC3CCOCC3)C4)nn2)c1`, the half-inhibitory concentration (IC50) in [2] turned out to be 2900 nM. Moreover, the Activity in data set [1] worked out at 7.8%.
Regarding `c1ccc(-c2ccc(NC[C@@H]3CC34CCN(CC3CCOCC3)CC4)nn2)cc1`, the predicted hepatic clearance in data set [3] is 8 mL/min/kg. Further, the concentration for half-maximal inhibition (IC50) in data set [4] is greater than 10000 nM; against Cytochrome P450 2D6, 2500 nM; in data set [2], 120 nM; at Cytochrome P450 3A4 it was greater than 30000 nM; against Cytochrome P450 2C9, greater than 30000 nM; at Cytochrome P450 1A2, greater than 30000 nM. In addition, the Activity in data set [1] is 3.5%. Besides, the Ratio IC50 in data set [5] was greater than 80.
`Fc1ccc(Cl)c(-c2ccc(NC[C@@H]3CC34CCN(CC3CCOCC3)CC4)nn2)c1`: in data set [3], the predicted hepatic clearance was 15 mL/min/kg. For the same compound, the IC50 in data set [4] is 1600 nM; at Cytochrome P450 2D6, 5700 nM; in [2], 1.8 nM; against Cytochrome P450 3A4, greater than 30000 nM; against Cytochrome P450 2C9, greater than 30000 nM; against Cytochrome P450 1A2, greater than 30000 nM. For the same compound, the Activity in [1] was found to be 4.5%. Besides, the Ratio IC50 in [5] stood at 900.
Take `Fc1ccccc1-c1ccc(NC[C@@H]2CC23CCN(CC2CCOCC2)CC3)nn1`: in [2], the IC50 worked out at 72 nM. For the same compound, the Activity in data set [1] was 4.3%.
Turning to `Fc1ccc(F)c(-c2ccc(NC[C@@H]3CC34CCN(CC3CCOCC3)CC4)nn2)c1`, the predicted hepatic clearance in data set [3] was 10 mL/min/kg. Moreover, the half-maximal inhibitory concentration (IC50) in data set [4] is 2600 nM; on Cytochrome P450 2D6, 1900 nM; in data set [2] it was 52 nM; on Cytochrome P450 3A4, 17000 nM; at Cytochrome P450 2C9, greater than 30000 nM; against Cytochrome P450 1A2 it was greater than 30000 nM. Moreover, in data set [1], the Activity is 3.5%. In addition, in [5], the Ratio IC50 came to 60.
`Fc1ccc(Cl)c(-c2ccc(NC[C@H]3CC34CCN(CC3CCCCC3)CC4)nn2)c1`: the results for the Activity in data set [6] and in data set [1] were 4.4% and 3.7%, respectively. The half-inhibitory concentration (IC50) in [2] is 28 nM; in data set [7], 530 nM.
On to `Fc1ccc(-c2ccc(NC[C@@H]3CC34CCN(CC3CCOCC3)CC4)nn2)cc1`, for which the IC50 in data set [2] worked out at 280 nM. The Activity in data set [1] worked out at 4.1%.
As for `Fc1cc(F)c(F)c(-c2ccc(NC[C@@H]3CC34CCN(CC3CCOCC3)CC4)nn2)c1`, the predicted hepatic clearance in [3] was 8.4 mL/min/kg. For the same compound, the IC50 in data set [4] is 1800 nM; at Cytochrome P450 2D6, 550 nM; in data set [2], 33 nM; on Cytochrome P450 3A4, greater than 30000 nM; against Cytochrome P450 2C9 it was greater than 30000 nM; at Cytochrome P450 1A2, greater than 30000 nM. The values for the Activity in [1] and in [1] (tested as the 2H-labelled form) were 3% and 3.3%, respectively. The Ratio IC50 in [5] turned out to be 55; in data set [5] (tested as the 2H-labelled form), 70. This compound showed an inhibition at 10 µM against hERG (KCNH2) of 99%.
In the case of `Fc1ccc(Cl)c(-c2ccc(NCC3CC34CCN(CC3CCCCC3)CC4)nn2)c1` (stereo not given), in data set [2], the 50% inhibitory concentration (IC50) amounted to 18 nM.
Same read-out and setting: next, `Fc1ccc(Cl)c(-c2ccc(NC3CC34CCN(CC3CCOCC3)CC4)nn2)c1` (racemic): greater than 10000 nM.
`Fc1ccc(Cl)c(-c2ccc(NC[C@@H]3CC34CCN(CC3CCCCC3)CC4)nn2)c1`: the figures for the Activity in data set [6] and in [1] were 4.3% and 2.6%, respectively. Besides, the results for the concentration for half-maximal inhibition (IC50) in [2] and in data set [7] were 12 nM and 81 nM, respectively.

Values taken from ChEMBL document CHEMBL5131409, “Synthesis and characterization of chiral 6-azaspiro[2.5]octanes as potent and selective antagonists of the M4 muscarinic acetylcholine receptor” (Bioorg Med Chem Lett, 2022).
